What was measured:
HCC-PDX-2 = test: PET imaging in HCC-PDX-2 model; format: in vivo, mouse; conditions: HCC-PDX-2, 7.4 MBq via tail vein
Protocol: The PET imaging and biodistribution studies were conducted in HCC-PDX1 and HCC-PDX2 mouse models. The histological verification was first conducted, where the immunohistochemical staining and H&E staining were conducted for FAP and Ki67, a tumor tissue was digested for protein extraction, and the expression of FAP was detected by Western Blot. Verification results were shown in FIG. 6A-B, where the immunohistochemical staining result was shown in FIG. 6A and the Western Blot result was shown in FIG. 6B. […] Therefore, the models can be used for further mouse experiments.
The products of ^68Ga-2PEG(3)-FAPI-dimer and ^68Ga-FAPI-46 were each diluted to a concentration of 74 MBq/mL. 7.4 MBq of ^68Ga-2PEG(3)-FAPI-dimer or 7.4 MBq of ^68Ga-FAPI-46 was injected into the HCC-PDX model through the tail vein (3 parallel experiments per group). All PET scans were conducted with an Inveon small animal PET scanner (Siemens Preclinical Solution, USA). The dynamic PET imaging was conducted with a scan duration of 60 min and reconstructed frames of 10×30 s, 10×60 s, 10×120 s, and 9×160 s. The 10 min static PET imaging was conducted with acquisition time points of 0.5 h, 1 h, 2 h, and 4 h after injection. […] Region of interests (ROIs) in the tumor, liver, heart, kidney, and muscle were calculated on PET images to quantify radioactive signals.

HCC-PDX-1 = test: Biodistribution in HCC-PDX-1 mice (gamma counter); format: in vivo, mouse; conditions: for tumor uptake: HCC-PDX-1, 1.48 MBq
Protocol: HCC-PDX-1 mice were injected with 1.48 MBq of ^68Ga-2PEG(3)-FAPI-dimer, and 1 h and 4 h after the injection (3 parallel experiments per time point), major organs and tumors were isolated, weighed, and analyzed. The ^68Ga-FAPI-46 group (1.48 MBq) and blocking group (1.48 MBq ^68Ga-2PEG(3)-FAPI-dimer+30 nmol unlabeled FAPI-46) were compared in terms of biodistribution.

[1] = Distribution, dosimetry and safety in healthy volunteers (PET/CT, OLINDA/EXM); format: in vivo, human
Protocol: This experiment was approved by the Clinical Research Ethics Committee of the First Affiliated Hospital of Xiamen University, and all subjects signed a written informed consent form. A dose of ^68Ga-2PEG(3)-FAPI-dimer for intravenous injection (1.8 MBq to 2.2 MBq [0.05 mCi to 0.06 mCi]/kg) was calculated according to a body weight of a subject. Data were acquired using a hybrid PET/CT scanner (Discovery MI, GE Healthcare, Milwaukee, WI, USA) at 10 min, 30 min, 60 min, and 180 min after intravenous injection. A maximum standard uptake value (SUVmax) was automatically calculated with ROIs drawn on a transaxial image. Safety data, including vital signs (blood pressure, pulse, respiratory rate, and body temperature) and adverse events, were acquired 4 h before and after the ^68Ga-2PEG(3)-FAPI-dimer was injected. […] The time-activity curve fitting and subsequent dose calculation were conducted using OLINDA/EXM v.1.1.

[2] = system: lesions in the three cancer patients; test: PET/CT in tumor patients (NPC, thyroid cancer, HCC), SUVmax of lesions; format: in vivo, human
Protocol: This experiment was approved by the Clinical Research Ethics Committee of the First Affiliated Hospital of Xiamen University, and all subjects signed a written informed consent form. Doses of ^68Ga-FAPI-46 and ^68Ga-2PEG(3)-FAPI-dimer for intravenous injection (1.8 MBq to 2.2 MBq [0.05 mCi to 0.06 mCi]/kg) were calculated according to a body weight of a patient. A cancer patient was administered with ^68Ga-2PEG(3)-FAPI-dimer and ^68Ga-FAPI-46 at an interval of 3 d. Data were acquired using a hybrid PET/CT scanner (Discovery MI, GE Healthcare, Milwaukee, WI, USA). A PET/CT image was acquired at 60 min after intravenous injection (a thyroid cancer patient was scanned twice at 60 min and 240 min after injection). A maximum standard uptake value (SUVmax) was automatically calculated with ROIs drawn on a transaxial image. PET/CT scanning was conducted at 60 min after the three patients were intravenously administered with ^68Ga-FAPI-46 and ^68Ga-2PEG(3)-FAPI-dimer, including a nasopharyngeal carcinoma (NPC) patient (non-keratinizing undifferentiated carcinoma, immunotherapy was conducted when the widespread bone metastasis occurred after chemoradiotherapy), a thyroid cancer patient (multiple cycles of radioactive iodine therapy were conducted after papillary thyroid carcinoma (PTC), total thyroidectomy, and lymph node dissection), and an HCC patient (untreated at preliminary diagnosis). The comparison of ^68Ga-FAPI-46 and ^68Ga-2PEG(3)-FAPI-dimer uptake among lesions in the three cancer patients was shown in Table 3.

[3] = three healthy volunteers, i.v., OLINDA/EXM
[4] = Patient 1 (NPC), PET/CT 60 min after i.v. injection
[5] = Patient 2 (Thyroid cancer), PET/CT 60 min after i.v. injection

CN(CCCN1CCN(C(=O)COCCOCCOCCNC(=O)CCC(=O)N[C@@H](CCCCNC(=O)CN2CCN(CC(=O)[O-])CCN(CC(=O)[O-])CCN(CC(=O)[O-])CC2)C(=O)NCCOCCOCCOCC(=O)N2CCN(CCCN(C)c3ccc4nccc(C(=O)NCC(=O)N5CC(F)(F)C[C@H]5C#N)c4c3)CC2)CC1)c1ccc2nccc(C(=O)NCC(=O)N3CC(F)(F)C[C@H]3C#N)c2c1.[68Ga+3] [^68Ga-2PEG(3)-FAPI-dimer]
uptake in normal organs (HCC-PDX-2; PET): low and decline rapidly | uptake and residence in tumor tissue compared with ^68Ga-FAPI-46 (HCC-PDX-2; PET 0.5 h, 1 h, 2 h, 4 h): better than | tumor uptake in the blocking group (HCC-PDX-1; HCC-PDX-1, 1.48 MBq + 30 nmol unlabeled FAPI-46, 1 h after injection): 1.07±0.19 % ID/g | tumor uptake in the blocking group (HCC-PDX-1; HCC-PDX-1, 1.48 MBq + 30 nmol unlabeled FAPI-46, 4 h after injection): 1.14±0.15 % ID/g | tumor uptake (HCC-PDX-1; 1 h after injection): 8.97±0.32 % ID/g | tumor uptake (HCC-PDX-1; 4 h after injection): 7.61±0.64 % ID/g | discomfort symptoms after injection (vital signs, adverse events) ([1]; i.v. 1.8 MBq to 2.2 MBq/kg, 4 h before and after injection): did not undergo any discomfort symptoms | Average value, Adrenal gland (dosimetry) [1, 3]: 7.98E−05 mSv/MBq | Average value, Ascending colon wall (dosimetry) [1, 3]: 2.79E−05 mSv/MBq | Average value, Bladder wall (dosimetry) [1, 3]: 1.04E−03 mSv/MBq | Average value, Brain (dosimetry) [1, 3]: 3.16E−05 mSv/MBq | Average value, Breast (dosimetry) [1, 3]: 6.36E−05 mSv/MBq | Average value, Descending colon wall (dosimetry) [1, 3]: 9.22E−04 mSv/MBq | Average value, Effective dose [1, 3]: 1.19E−02 mSv/MBq | Average value, Effective dose equivalent [1, 3]: 1.69E−02 mSv/MBq | Average value, Kidney (dosimetry) [1, 3]: 1.01E−04 mSv/MBq | Average value, Liver (dosimetry) [1, 3]: 1.65E−03 mSv/MBq | Average value, Lung (dosimetry) [1, 3]: 1.36E−03 mSv/MBq | Average value, Muscle (dosimetry) [1, 3]: 4.19E−05 mSv/MBq | Average value, Osteoblast (dosimetry) [1, 3]: 6.47E−05 mSv/MBq | Average value, Ovary (dosimetry) [1, 3]: 5.94E−04 mSv/MBq | Average value, Pancreas (dosimetry) [1, 3]: 7.61E−04 mSv/MBq | Average value, Red bone marrow (dosimetry) [1, 3]: 1.12E−03 mSv/MBq | Average value, Skin (dosimetry) [1, 3]: 1.22E−05 mSv/MBq | Average value, Small intestine (dosimetry) [1, 3]: 5.18E−05 mSv/MBq | Average value, Spleen (dosimetry) [1, 3]: 1.58E−04 mSv/MBq | Average value, Stomach wall (dosimetry) [1, 3]: 7.12E−04 mSv/MBq | Average value, Thymus (dosimetry) [1, 3]: 9.64E−06 mSv/MBq | Average value, Thyroid (dosimetry) [1, 3]: 3.11E−03 mSv/MBq | Average value, Uterus (dosimetry) [1, 3]: 1.27E−05 mSv/MBq | SUVmax, Bone metastasis 1 [2, 4]: 17.8 | SUVmax, Bone metastasis 2 [2, 4]: 27.5 | SUVmax, Bone metastasis 3 [2, 4]: 27.4 | SUVmax, Bone metastasis 4 [2, 4]: 25.1 | SUVmax, Bone metastasis 5 [2, 4]: 29.8 | SUVmax, Bone metastasis 6 [2, 4]: 20.8 | SUVmax, Bone metastasis 7 [2, 4]: 17.2 | SUVmax, Bone metastasis 8 [2, 4]: 22.1 | SUVmax, Bone metastasis 10 [2, 4]: 23.3 | SUVmax, Axillary lymph node 1 [2, 5]: 23.2 | SUVmax, Axillary lymph node 2 [2, 5]: 33.2 | SUVmax, Axillary lymph node 3 [2, 5]: 28.9 | SUVmax, Bone metastasis 1 [2, 5]: 26.4 | SUVmax, Cervical lymph node 1 [2, 5]: 32.8 | SUVmax, Cervical lymph node 2 [2, 5]: 8.1 | SUVmax, Hilar lymph node 1 [2, 5]: 18.1 | SUVmax, Mediastinal lymph node 1 [2, 5]: 24.6 | SUVmax, Supraclavicular lymph node 1 [2, 5]: 39.0 | SUVmax, Supraclavicular lymph node 2 [2, 5]: 24.1 | SUVmax, Primary tumor ([2]; Patient 3 (HCC), tumor with low FAP expression, PET/CT 60 min after i.v. injection): 9.8 | uptake compared with ^68Ga-FAPI-46 in the comparative analysis of single lesions ([2]; three cancer patients, Table 3): significantly higher

— US11952368B2, “FAPI dimer compound, FAPI dimer-based positron emission tomography (PET) imaging agent for tumor diagnosis, and preparation method and use thereof” (XIAMEN UNIVERSITY, priority 2021, dated 2024)
